Data from patent publication US10308643B2, “Heterocyclic compound” (Takeda Pharmaceutical Company Limited, priority 2015, dated 2019).

Legend:
Type in all cases: biochemical
HDAC6 enzyme = target: T1, HDAC6 enzyme (Homo sapiens, UniProt Q9UBN7); assay: HDAC1/6 Enzyme Inhibitory Assay (HDAC-Glo I/II Assay kit), HDAC6; conditions: 1 μM test compound; wells without enzyme = 100% inhibition; read-out: HDAC6 inhibitory rate (%) (1 μM)
T1 construct: transducing full length HDAC1 and HDAC6 genes into Sf-9 insect cells; GST; purchased SignalChem; host or cells: Sf-9 insect cells
T1 sequence (Q9UBN7 1-1215): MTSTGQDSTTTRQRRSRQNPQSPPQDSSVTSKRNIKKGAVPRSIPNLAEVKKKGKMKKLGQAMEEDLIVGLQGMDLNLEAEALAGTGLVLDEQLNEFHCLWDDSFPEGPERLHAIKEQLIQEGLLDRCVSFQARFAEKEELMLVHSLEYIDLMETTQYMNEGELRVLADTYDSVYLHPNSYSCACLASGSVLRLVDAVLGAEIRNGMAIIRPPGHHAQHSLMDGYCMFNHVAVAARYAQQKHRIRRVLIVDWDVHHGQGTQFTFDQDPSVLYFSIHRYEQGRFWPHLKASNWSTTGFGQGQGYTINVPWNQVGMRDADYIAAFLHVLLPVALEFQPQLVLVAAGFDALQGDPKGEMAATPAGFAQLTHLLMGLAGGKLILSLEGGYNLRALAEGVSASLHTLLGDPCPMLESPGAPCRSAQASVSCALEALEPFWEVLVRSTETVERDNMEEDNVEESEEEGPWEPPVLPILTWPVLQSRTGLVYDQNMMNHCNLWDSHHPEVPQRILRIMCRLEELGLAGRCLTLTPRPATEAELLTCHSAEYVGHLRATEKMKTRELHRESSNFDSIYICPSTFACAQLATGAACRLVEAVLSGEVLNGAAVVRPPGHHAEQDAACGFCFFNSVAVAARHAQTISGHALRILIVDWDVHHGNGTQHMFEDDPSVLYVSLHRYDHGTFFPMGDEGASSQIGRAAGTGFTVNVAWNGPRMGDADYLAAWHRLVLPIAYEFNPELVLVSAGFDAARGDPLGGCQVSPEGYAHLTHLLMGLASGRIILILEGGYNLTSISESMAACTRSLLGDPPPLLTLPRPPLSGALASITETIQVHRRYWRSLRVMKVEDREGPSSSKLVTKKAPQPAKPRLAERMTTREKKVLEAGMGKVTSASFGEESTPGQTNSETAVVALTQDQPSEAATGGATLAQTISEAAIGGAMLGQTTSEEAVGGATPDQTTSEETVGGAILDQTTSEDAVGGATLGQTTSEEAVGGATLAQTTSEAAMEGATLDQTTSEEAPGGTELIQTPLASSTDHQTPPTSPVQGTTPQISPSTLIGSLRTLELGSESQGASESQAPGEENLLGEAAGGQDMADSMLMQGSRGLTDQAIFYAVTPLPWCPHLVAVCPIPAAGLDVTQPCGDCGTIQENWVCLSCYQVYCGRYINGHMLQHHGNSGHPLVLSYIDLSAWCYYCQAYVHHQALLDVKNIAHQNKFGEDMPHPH
How it was run: (§1)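 Luminescent HDAC-Glo I/II read-out was taken 20 min after adding substrate-developer, at room temperature. Before this, compound and enzyme were held together for 60 min in 24 mM Tris-HCl pH 7.5 with 0.6 mM glutathione and 0.01% Tween-20. The enzyme was full-length HDAC1 or HDAC6 from Sf-9 cells, GST-purified. Wells without enzyme defined 100% inhibition.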

HDAC1 enzyme = target: T2, HDAC1 enzyme (Homo sapiens, UniProt Q13547); assay: HDAC1/6 Enzyme Inhibitory Assay (HDAC-Glo I/II Assay kit), HDAC1; conditions: 1 μM test compound; wells without enzyme = 100% inhibition; read-out: HDAC1 inhibitory rate (%) (1 μM)
T2 construct: transducing full length HDAC1 and HDAC6 genes into Sf-9 insect cells; GST; purchased SignalChem; host or cells: Sf-9 insect cells
How it was run: as §1

HDAC9 enzyme = target: T3, HDAC9 enzyme (Homo sapiens, UniProt Q9UKV0); assay: HDAC9 Enzyme Inhibitory Assay (HDAC-Glo class IIa); conditions: 1 μM test compound; wells without enzyme = 100% inhibition; read-out: HDAC9 inhibitory rate (%) (1 μM)
T3 construct: transducing full length HDAC9 gene into Sf-9 insect cells; made in house; host or cells: Sf-9 insect cells
How it was run: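 Luminescent HDAC-Glo class IIa readout after a 20 min room-temperature reaction; relative inhibition referenced to enzyme-free wells as 100%. Test compound first preincubated 60 min with Sf-9-expressed, Ni-NTA-purified full-length HDAC9 in pH 7.5 Tris buffer containing 135 mM NaCl, 0.6 mM glutathione and 0.01% Tween-20.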

T3 sequence (Q9UKV0 whole entry, species assumed): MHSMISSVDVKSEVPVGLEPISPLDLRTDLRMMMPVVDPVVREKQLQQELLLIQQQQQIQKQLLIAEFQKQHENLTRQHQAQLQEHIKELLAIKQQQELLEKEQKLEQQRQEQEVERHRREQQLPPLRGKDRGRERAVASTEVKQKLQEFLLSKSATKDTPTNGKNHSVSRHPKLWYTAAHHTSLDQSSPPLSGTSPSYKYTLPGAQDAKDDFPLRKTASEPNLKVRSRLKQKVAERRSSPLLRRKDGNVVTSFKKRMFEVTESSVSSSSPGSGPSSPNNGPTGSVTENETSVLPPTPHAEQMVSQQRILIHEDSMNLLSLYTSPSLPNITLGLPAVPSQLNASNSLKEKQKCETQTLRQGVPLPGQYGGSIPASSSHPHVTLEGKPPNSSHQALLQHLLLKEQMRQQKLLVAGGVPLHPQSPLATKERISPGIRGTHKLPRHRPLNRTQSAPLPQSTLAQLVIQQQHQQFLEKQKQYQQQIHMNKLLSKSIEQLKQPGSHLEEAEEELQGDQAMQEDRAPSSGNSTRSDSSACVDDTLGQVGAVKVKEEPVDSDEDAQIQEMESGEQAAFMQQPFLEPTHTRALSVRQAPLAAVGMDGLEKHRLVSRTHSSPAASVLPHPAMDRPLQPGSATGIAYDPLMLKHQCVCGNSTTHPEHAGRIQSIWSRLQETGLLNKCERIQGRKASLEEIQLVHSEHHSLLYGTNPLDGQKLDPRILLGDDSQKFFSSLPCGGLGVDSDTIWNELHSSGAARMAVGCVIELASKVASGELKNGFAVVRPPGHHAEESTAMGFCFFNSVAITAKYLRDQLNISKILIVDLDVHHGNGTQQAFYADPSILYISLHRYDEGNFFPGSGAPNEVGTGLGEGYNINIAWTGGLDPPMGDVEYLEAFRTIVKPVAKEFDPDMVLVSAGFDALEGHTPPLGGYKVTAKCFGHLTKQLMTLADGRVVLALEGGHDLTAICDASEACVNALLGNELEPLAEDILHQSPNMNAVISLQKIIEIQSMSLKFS
T2 sequence (Q13547 whole entry): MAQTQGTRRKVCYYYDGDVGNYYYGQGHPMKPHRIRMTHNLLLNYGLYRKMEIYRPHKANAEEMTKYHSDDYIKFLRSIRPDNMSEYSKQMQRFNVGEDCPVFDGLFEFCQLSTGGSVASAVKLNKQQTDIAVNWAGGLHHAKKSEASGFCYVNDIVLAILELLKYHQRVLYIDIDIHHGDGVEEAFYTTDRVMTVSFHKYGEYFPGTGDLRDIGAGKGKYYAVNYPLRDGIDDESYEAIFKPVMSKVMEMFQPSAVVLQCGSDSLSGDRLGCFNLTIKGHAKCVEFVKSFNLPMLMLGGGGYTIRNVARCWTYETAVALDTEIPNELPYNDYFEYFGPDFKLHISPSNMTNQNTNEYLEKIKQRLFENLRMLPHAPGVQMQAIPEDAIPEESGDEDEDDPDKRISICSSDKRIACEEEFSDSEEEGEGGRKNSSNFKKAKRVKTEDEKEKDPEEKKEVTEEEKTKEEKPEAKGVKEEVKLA

inhibition at 1 µM (HDAC6 enzyme) [%] | inhibition at 1 µM (HDAC1 enzyme) [%] | inhibition at 1 µM (HDAC9 enzyme) [%] | Compound
96 | 13 | 57 | Cn1cc(C(=O)N[C@@H]2CCCC[C@H]2N2Cc3ccc(-c4noc(C(F)(F)F)n4)cc3C2=O)cn1 [Example 112, 1-methyl-N-((1R,2R)-2-(1-oxo-6-(5-(trifluoromethyl)-1,2,4-oxadiazol-3-yl)-1,3-dihydro-2H-isoindol-2-yl)cyclohexyl)-1H-pyrazole-4-carboxamide]
97 | 93 | 99 | Cc1ccc([C@@H]2CNCC[C@H]2N2Cc3ccc(-c4noc(C(F)(F)F)n4)cc3C2=O)cc1Cl (relative stereo) [Example 56, 2-(trans-3-(3-chloro-4-methylphenyl)piperidin-4-yl)-6-(5-(trifluoromethyl)-1,2,4-oxadiazol-3-yl)isoindolin-1-one]
98 | 94 | 99 | O=C1c2cc(-c3noc(C(F)(F)F)n3)ccc2CN1C1CCNC[C@@H]1c1ccc(Cl)cc1 (stereo in doubt) [Example 51, 2-(trans-3-(4-chlorophenyl)piperidin-4-yl)-6-(5-(trifluoromethyl)-1,2,4-oxadiazol-3-yl)isoindolin-1-one]
39 | 1 | 11 | CC(C)(C)N1CC(C(=O)N[C@@H]2CCCC[C@H]2N2Cc3ccc(-c4noc(C(F)(F)F)n4)cc3C2=O)C1 [Example 114, 1-tert-butyl-N-((1R,2R)-2-(1-oxo-6-(5-(trifluoromethyl)-1,2,4-oxadiazol-3-yl)-1,3-dihydro-2H-isoindol-2-yl)cyclohexyl)azetidine-3-carboxamide]
99 | 18 | 48 | CC(C)(C)OC(=O)N1CC[C@@H](N2Cc3ccc(-c4noc(C(F)(F)F)n4)cc3C2=O)[C@@H](c2ccccc2)C1 [Example 19, tert-butyl (3S,4R)-4-(1-oxo-6-(5-(trifluoromethyl)-1,2,4-oxadiazol-3-yl)-1,3-dihydro-2H-isoindol-2-yl)-3-phenylpiperidine-1-carboxylate]
98 | 3 | 43 | CN1CCC[C@H]1C(=O)N[C@@H]1CCCC[C@H]1N1Cc2ccc(-c3noc(C(F)(F)F)n3)cc2C1=O [Example 104, 1-methyl-N-((1R,2R)-2-(1-oxo-6-(5-(trifluoromethyl)-1,2,4-oxadiazol-3-yl)-1,3-dihydro-2H-isoindol-2-yl)cyclohexyl)-L-prolinamide]
92 | -3 | 39 | O=C1CC[C@@H](C(=O)N[C@@H]2CCCC[C@H]2N2Cc3ccc(-c4noc(C(F)(F)F)n4)cc3C2=O)N1 [Example 128, 5-oxo-N-((1R,2R)-2-(1-oxo-6-(5-(trifluoromethyl)-1,2,4-oxadiazol-3-yl)-1,3-dihydro-2H-isoindol-2-yl)cyclohexyl)-L-prolinamide]
95 | 56 | 97 | O=C(c1ccccc1)N1CCCC(N2Cc3ncc(-c4noc(C(F)(F)F)n4)cc3C2=O)C1 (stereo not drawn) [Example 40, 6-(1-benzoylpiperidin-3-yl)-3-(5-(trifluoromethyl)-1,2,4-oxadiazol-3-yl)-6,7-dihydro-5H-pyrrolo[3,4-b]pyridin-5-one]
97 | 54 | 89 | O=C(N[C@@H]1CCCC[C@H]1N1Cc2ccc(-c3noc(C(F)(F)F)n3)cc2C1=O)c1ccccc1 (relative stereo) [Example 9, trans-N-(2-(1-oxo-6-(5-(trifluoromethyl)-1,2,4-oxadiazol-3-yl)-1,3-dihydro-2H-isoindol-2-yl)cyclohexyl)benzamide]
98 | 80 | 92 | O=C(N[C@H]1CCCC[C@H]1N1Cc2ccc(-c3noc(C(F)(F)F)n3)cc2C1=O)C1CC1 [Example 86, N-((1S,2R)-2-(1-oxo-6-(5-(trifluoromethyl)-1,2,4-oxadiazol-3-yl)-1,3-dihydro-2H-isoindol-2-yl)cyclohexyl) cyclopropanecarboxamide]
